Values joined by “and” are separate entries in the source; they are usually repeats but may differ in a detail not shown here. Identical values can stand only once.
Experiment: molar heat capacity at constant pressure
Conditions: 101.33 kPa, Crystal 2, Small (less than 1 g) adiabatic calorimetry

O=S(=O)([O-])[O-].[Sr+2] [sulfuric acid, strontium salt (1:1)]
Conditions	molar heat capacity at constant pressure
145.71 K	68.41 J/K/mol
145.74 K	68.47 J/K/mol
146.11 K	68.55 J/K/mol
148.91 K	69.29 J/K/mol
148.95 K	69.42 J/K/mol
149.31 K	69.49 J/K/mol
150 K	69.86 J/K/mol
152.12 K	70.28 J/K/mol
152.16 K	70.25 J/K/mol
152.52 K	70.41 J/K/mol
155.34 K	71.05 J/K/mol
155.38 K	71.08 J/K/mol
155.74 K	71.27 J/K/mol
158.56 K	71.97 J/K/mol
158.6 K	72 J/K/mol
158.97 K	72.09 J/K/mol
160 K	72.51 J/K/mol
161.8 K	72.79 J/K/mol
161.84 K	72.83 J/K/mol
162.22 K	72.92 J/K/mol
165.05 K	73.58 J/K/mol
165.09 K	73.59 J/K/mol
165.46 K	73.73 J/K/mol
168.3 K	74.28 J/K/mol
168.34 K	74.31 J/K/mol
168.72 K	74.49 J/K/mol
170 K	74.99 J/K/mol
171.55 K	75.15 J/K/mol
171.6 K	75.19 J/K/mol
171.99 K	75.27 J/K/mol
174.82 K	75.93 J/K/mol
174.86 K	75.97 J/K/mol
175.25 K	76.02 J/K/mol
178.09 K	76.68 J/K/mol
178.13 K	76.74 J/K/mol
178.53 K	76.77 J/K/mol
180 K	77.33 J/K/mol
181.37 K	77.42 J/K/mol
181.41 K	77.48 J/K/mol
181.81 K	77.53 J/K/mol
184.66 K	78.14 J/K/mol
184.69 K	78.22 J/K/mol
185.09 K	78.29 J/K/mol
187.96 K	78.91 J/K/mol
187.99 K	78.94 J/K/mol
188.38 K	78.97 J/K/mol
190 K	79.65 J/K/mol
191.26 K	79.72 J/K/mol
191.28 K	79.71 J/K/mol
191.67 K	79.8 J/K/mol
194.56 K	80.51 J/K/mol and 80.47 J/K/mol
194.96 K	80.64 J/K/mol
197.83 K	81.24 J/K/mol
197.85 K	81.22 J/K/mol
198.25 K	81.33 J/K/mol
200 K	81.87 J/K/mol
201.09 K	81.92 J/K/mol
201.14 K	81.8 J/K/mol
201.53 K	81.9 J/K/mol
204.35 K	82.54 J/K/mol
204.42 K	82.41 J/K/mol
204.81 K	82.55 J/K/mol
207.6 K	83.18 J/K/mol
207.7 K	82.95 J/K/mol
208.08 K	83.16 J/K/mol
210 K	83.8 J/K/mol
210.83 K	83.81 J/K/mol
210.94 K	83.69 J/K/mol
211.34 K	83.83 J/K/mol
214.05 K	84.44 J/K/mol
214.18 K	84.34 J/K/mol
214.58 K	84.5 J/K/mol
217.26 K	85.04 J/K/mol
217.41 K	84.95 J/K/mol
217.8 K	85.11 J/K/mol
220 K	85.76 J/K/mol
220.45 K	85.67 J/K/mol
220.61 K	85.61 J/K/mol
221.01 K	85.74 J/K/mol
223.62 K	86.31 J/K/mol
223.8 K	86.22 J/K/mol
224.21 K	86.36 J/K/mol
226.78 K	86.94 J/K/mol
226.98 K	86.85 J/K/mol
227.39 K	86.96 J/K/mol
229.93 K	87.58 J/K/mol
230 K	87.75 J/K/mol
230.13 K	87.48 J/K/mol
230.55 K	87.57 J/K/mol
233.05 K	88.24 J/K/mol
233.27 K	88.13 J/K/mol
233.75 K	88.27 J/K/mol
236.17 K	88.83 J/K/mol
236.39 K	88.63 J/K/mol
236.88 K	88.89 J/K/mol
239.32 K	89.46 J/K/mol

Source: the NIST ThermoML archive (doi:10.1016/j.tca.2013.05.017)
